Source: patent US12139492B2 (Endotarget Inc., priority 2021, dated 2024)
Where two headings read alike, the source gives them in different places.

How the values were obtained:
[1] = test system: Mino cells; assay: Antiproliferative effect, MTS cell viability assay, Mino cells; type: cell-based; settings: Homo sapiens, Mino mantle cell lymphoma cells, read-out: IC50 (anti-proliferation) Mino cells
Outline: (§1)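 Readout was MTS-derived formazan absorbance (490 nm) reflecting metabolically active cells. Treatment lasted 72 h over a 0–10 μM range (0.001, 0.01, 0.1, 1, 10 μM) in JeKo-1 and Mino B-cell malignancy cells.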

[2] = test system: JeKo-1 cells; assay: Antiproliferative effect, MTS cell viability assay, JeKo-1 cells; type: cell-based; settings: Homo sapiens; JeKo-1 mantle cell lymphoma cells; read-out: IC50 (anti-proliferation) JeKO-1 cells
Outline: as §1

[3] = molecular target: BTK (Homo sapiens, UniProt Q06187); assay: Degradation of BTK protein in Namalwa cells (Western blot; DC50, Dmax); settings: for DC50: read-out: DC50 (BTK degradation), concentration giving 50% reduction of BTK expression level, cell line not given; for Dmax: read-out: Dmax (BTK degradation)
Sequence of BTK (Q06187 whole entry): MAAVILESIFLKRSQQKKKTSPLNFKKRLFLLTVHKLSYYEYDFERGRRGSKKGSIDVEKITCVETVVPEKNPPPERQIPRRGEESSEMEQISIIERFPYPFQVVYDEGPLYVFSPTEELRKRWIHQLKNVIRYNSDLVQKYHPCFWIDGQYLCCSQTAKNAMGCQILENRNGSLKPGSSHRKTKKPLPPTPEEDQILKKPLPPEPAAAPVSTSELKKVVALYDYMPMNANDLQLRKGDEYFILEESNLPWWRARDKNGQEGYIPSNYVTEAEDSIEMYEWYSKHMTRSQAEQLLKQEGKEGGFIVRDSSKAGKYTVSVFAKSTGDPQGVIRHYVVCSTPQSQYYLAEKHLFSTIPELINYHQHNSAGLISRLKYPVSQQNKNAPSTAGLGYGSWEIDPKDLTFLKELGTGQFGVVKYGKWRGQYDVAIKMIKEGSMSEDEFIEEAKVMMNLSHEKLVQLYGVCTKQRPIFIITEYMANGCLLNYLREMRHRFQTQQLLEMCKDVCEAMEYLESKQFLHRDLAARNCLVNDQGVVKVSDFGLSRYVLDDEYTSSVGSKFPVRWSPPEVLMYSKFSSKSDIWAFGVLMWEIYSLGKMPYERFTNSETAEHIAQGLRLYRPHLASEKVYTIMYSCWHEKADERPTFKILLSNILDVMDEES

Row | SMILES | IC50 ([1]; MINO) [nM] | IC50 [2] [nM] | DC50 [3] [nM] | Dmax [3] [%] | IC50 [1] [nM]
1 | Nc1ncnc2c1c(-c1ccc(Oc3ccccc3)cc1)nn2C1CCN(CCCN2CCC(CN3CCC(c4ccc(N5CCC(=O)NC5=O)cc4)CC3)C2)CC1 (stereo not drawn) [Compound 550, 1-(4-(1-((1-(3-(4-(4-amino-3-(4-phenoxyphenyl)-1H-pyrazolo[3,4-d]pyrimidin-1-yl)piperidin-1-yl)propyl)pyrrolidin-3-yl)methyl)piperidin-4-yl)phenyl)dihydropyrimidine-2,4(1H,3H)-dione] | < 1000 | < 1000 | 10 to 50 | > 90 | 
2 | Nc1ncnc2c1c(-c1ccc(Oc3ccccc3)cc1)nn2C1CCN(CCCN2CCC(CN3CCN(c4ccc(N5CCC(=O)NC5=O)cc4)CC3)C2)CC1 (stereo not drawn) [Compound 551, 1-(4-(4-((1-(3-(4-(4-amino-3-(4-phenoxyphenyl)-1H-pyrazolo[3,4-d]pyrimidin-1-yl)piperin-1-yl)propyl)pyrrolidin-3-yl)methyl)piperazin-1-yl)phenyl)dihydropyrimidine-2,4(1H,3H)-dione] | < 1000 | < 1000 | 10 to 50 | > 90 | 
3 | Nc1ncnc2c1c(-c1ccc(Oc3ccccc3)cc1)nn2C1CCN(CC2CCN(CC3CCN(c4ccc(N5CCC(=O)NC5=O)cc4)CC3)CC2)CC1 [Compound 552] |  | < 1000 | < 10 | > 90 | < 1000
4 | Nc1ncnc2c1c(-c1ccc(Oc3ccccc3)cc1)nn2C1CCN(CCN2CCC(CN3CCC(c4ccc(N5CCC(=O)NC5=O)cc4)CC3)CC2)CC1 [Compound 553, 1-(4-(1-((1-(2-(4-(4-amino-3-(4-phenoxyphenyl)-1H-pyrazolo[3,4-d]pyrimidin-1-yl)piperidin-1-yl)ethyl)piperidin-4-yl)methyl)piperidin-4-yl)phenyl)dihydropyrimidine-2,4(1H,3H)-dione] |  | < 1000 | < 10 | > 90 | < 1000
5 | Nc1ncnc2c1c(-c1ccc(Oc3ccccc3)cc1)nn2C1CCN(CCN2CCC(CN3CCN(c4ccc(N5CCC(=O)NC5=O)cc4)CC3)CC2)CC1 [Compound 554, 1-(4-(4-((1-(2-(4-(4-amino-3-(4-phenoxyphenyl)-1H-pyrazolo[3,4-d]pyrimidin-1-yl)piperidin-1-yl)ethyl)piperidin-4-yl)methyl)piperazin-1-yl)phenyl)dihydropyrimidine-2,4(1H,3H)-dione] | < 1000 | < 1000 | < 10 | > 90 | 
6 | Nc1ncnc2c1c(-c1ccc(Oc3ccccc3)cc1)nn2C1CCN(CCCN2CCC(CN3CCC(c4ccc(N5CCC(=O)NC5=O)cc4)CC3)CC2)CC1 [Compound 555, 1-(4-(1-((1-(3-(4-(4-amino-3-(4-phenoxyphenyl)-1H-pyrazolo[3,4-d]pyrimidin-1-yl)piperidin-1-yl)propyl)piperidin-4-yl)methyl)piperidin-4-yl)phenyl)dihydropyrimidine-2,4(1H,3H)-dione] | < 1000 | < 1000 | 10 to 50 | > 90 | 
7 | Nc1ncnc2c1c(-c1ccc(Oc3ccccc3)cc1)nn2C1CCN(CCCN2CCC(CN3CCN(c4ccc(N5CCC(=O)NC5=O)cc4)CC3)CC2)CC1 [Compound 556, 1-(4-(4-((1-(3-(4-(4-amino-3-(4-phenoxyphenyl)-1H-pyrazolo[3,4-d]pyrimidin-1-yl)piperidin-1-yl)propyl)piperidin-4-yl)methyl)piperazin-1-yl)phenyl)dihydropyrimidine-2,4(1H,3H)-dione] | < 1000 | < 1000 | < 10 | > 90 | 
8 | Nc1ncnc2c1c(-c1ccc(Oc3ccccc3)cc1)nn2C1CCN(CC2CCN(CC3CCN(c4ccc(NC5CCC(=O)NC5=O)cc4)CC3)CC2)CC1 (stereo not drawn) [Compound 557, 3-((4-(4-((4-((4-(4-amino-3-(4-phenoxyphenyl)-1H-pyrazolo[3,4-d]pyrimidin-1-yl)piperidin-1-yl)methyl)piperidin-1-yl)methyl)piperidin-1-yl)phenyl)amino)piperidine-2,6-dione] | < 1000 | < 1000 | < 10 | > 90 | 
9 | Nc1ncnc2c1c(-c1ccc(Oc3ccccc3)cc1)nn2C1CCN(CCN2CCC(CN3CCN(c4ccc(NC5CCC(=O)NC5=O)cc4)CC3)CC2)CC1 (stereo not drawn) [Compound 558, 3-((4-(4-((1-(2-(4-(4-amino-3-(4-phenoxyphenyl)-1H-pyrazolo[3,4-d]pyrimidin-1-yl)piperidin-1-yl)ethyl)piperidin-4-yl)methyl)piperazin-1-yl)phenyl)amino)piperidine-2,6-dione] | < 1000 | < 1000 | < 10 | > 90 | 
10 | Nc1ncnc2c1c(-c1ccc(Oc3ccccc3)cc1)nn2C1CCN(CCN2CCC(CC3CCN(c4ccc(NC5CCC(=O)NC5=O)cc4)CC3)CC2)CC1 (stereo not drawn) [Compound 559, 3-((4-(4-((1-(2-(4-(4-amino-3-(4-phenoxyphenyl)-1H-pyrazolo[3,4-d]pyrimidin-1-yl)piperidin-1-yl)ethyl)piperidin-4-yl)methyl)piperidin-1-yl)phenyl)amino)piperidine-2,6-dione] | < 1000 | < 1000 | < 10 | > 90 | 
11 | Nc1ncnc2c1c(-c1ccc(Oc3ccccc3)cc1)nn2C1CCN(CCCN2CCC(CN3CCN(c4ccc(NC5CCC(=O)NC5=O)cc4)CC3)CC2)CC1 (stereo not drawn) [Compound 560, 3-((4-(4-((1-(3-(4-(4-amino-3-(4-phenoxyphenyl)-1H-pyrazolo[3,4-d]pyrimidin-1-yl)piperidin-1-yl)propyl)piperidin-4-yl)methyl)piperazin-1-yl)phenyl)amino)piperidine-2,6-dione] | < 1000 | < 1000 | < 10 | > 90 | 
12 | Nc1ncnc2c1c(-c1ccc(Oc3ccccc3)cc1)nn2C1CCN(CCCN2CCC(CC3CCN(c4ccc(NC5CCC(=O)NC5=O)cc4)CC3)CC2)CC1 (stereo not drawn) [Compound 561, 3-((4-(4-((1-(3-(4-(4-amino-3-(4-phenoxyphenyl)-1H-pyrazolo[3,4-d]pyrimidin-1-yl)piperidin-1-yl)propyl)piperidin-4-yl)methyl)piperidin-1-yl)phenyl)amino)piperidine-2,6-dione] | < 1000 | < 1000 | 10 to 50 | > 90 | 
13 | Nc1ncnc2c1c(-c1ccc(Oc3ccccc3)cc1)nn2C1CCN(CC2CCN(CC3CCN(c4ccc(NC5CCC(=O)NC5=O)cc4)CC3)C2)CC1 (stereo not drawn) [Compound 562, 3-((4-(4-((3-((4-(4-amino-3-(4-phenoxyphenyl)-1H-pyrazolo[3,4-d]pyrimidin-1-yl)piperidin-1-yl)methyl)pyrrolidin-1-yl)methyl)piperidin-1-yl)phenyl)amino)piperidine-2,6-dione] | 1000 to 10000 | 1000 to 10000 | 10 to 50 | > 90 | 
14 | Nc1ncnc2c1c(-c1ccc(Oc3ccccc3)cc1)nn2C1CCN(CCN2CCC(CN3CCN(c4ccc(NC5CCC(=O)NC5=O)cc4)CC3)C2)CC1 (stereo not drawn) [Compound 563, 3-((4-(4-((1-(2-(4-(4-amino-3-(4-phenoxyphenyl)-1H-pyrazolo[3,4-d]pyrimidin-1-yl)piperidin-1-yl)ethyl)pyrrolidin-3-yl)methyl)piperazin-1-yl)phenyl)amino)piperidine-2,6-dione] | 1000 to 10000 | 1000 to 10000 | 10 to 50 | > 90 | 
15 | Nc1ncnc2c1c(-c1ccc(Oc3ccccc3)cc1)nn2C1CCN(CCN2CCC(CC3CCN(c4ccc(NC5CCC(=O)NC5=O)cc4)CC3)C2)CC1 (stereo not drawn) [Compound 564, 3-((4-(4-((1-(2-(4-(4-amino-3-(4-phenoxyphenyl)-1H-pyrazolo[3,4-d]pyrimidin-1-yl)piperidin-1-yl)ethyl)pyrrolidin-3-yl)methyl)piperidin-1-yl)phenyl)amino)piperidine-2,6-dione] | < 1000 | < 1000 | 10 to 50 | > 90 | 
16 | Nc1ncnc2c1c(-c1ccc(Oc3ccccc3)cc1)nn2C1CCN(CCCN2CCC(CN3CCN(c4ccc(NC5CCC(=O)NC5=O)cc4)CC3)C2)CC1 (stereo not drawn) [Compound 565, 3-((4-(4-((1-(3-(4-(4-amino-3-(4-phenoxyphenyl)-1H-pyrazolo[3,4-d]pyrimidin-1-yl)piperidin-1-yl)propyl)pyrrolidin-3-yl)methyl)piperazin-1-yl)phenyl)amino)piperidine-2,6-dione] | < 1000 | < 1000 | 10 to 50 | > 75 | 
17 | Nc1ncnc2c1c(-c1ccc(Oc3ccccc3)cc1)nn2C1CCN(CCCN2CCC(CC3CCN(c4ccc(NC5CCC(=O)NC5=O)cc4)CC3)C2)CC1 (stereo not drawn) [Compound 567, 3-((4-(4-((1-(3-(4-(4-amino-3-(4-phenoxyphenyl)-1H-pyrazolo[3,4-d]pyrimidin-1-yl)piperidin-1-yl)propyl)pyrrolidin-3-yl)methyl)piperidin-1-yl)phenyl)amino)piperidine-2,6-dione] | 1000 to 10000 | < 1000 | 10 to 50 | > 90 | 
18 | Nc1ncnc2c1c(-c1ccc(Oc3ccccc3)cc1)nn2C1CCN(C2CCN(CC3CCN(c4ccc(N5CCC(=O)NC5=O)cc4)CC3)CC2)CC1 [Compound 568, 1-(4-(4-((4-(4-amino-3-(4-phenoxyphenyl)-1H-pyrazolo[3,4-d]pyrimidin-1-yl)-[1,4′-bipiperidin]-1′-yl)methyl)piperidin-1-yl)phenyl)dihydropyrimidine-2,4(1H,3H)-dione] | 1000 to 10000 | 1000 to 10000 | > 50 | > 75 | 
